What was measured:
Assay in all cases: relative viability (nuclei count vs DMSO), 5 days (fraction); higher = more cells survive
[1] = compound: COc1cc2ncn(-c3cc(OCc4ccccc4C(F)(F)F)c(C(N)=O)s3)c2cc1OC + CC(=O)c1c(C)c2cnc(Nc3ccc(N4CCNCC4)cn3)nc2n(C2CCCC2)c1=O [Palbociclib] (partner 0.5 µM)
Procedure, shortened: (§1)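 One day after seeding in 1536-well plates, lung cancer cell lines were dosed by pin tool. Dosing was either single-drug or a fixed anchor-drug dose plus five library-drug doses (not always all listed) in √10 steps. After 5 days, nuclei were stained in one fix-and-stain step and counted on 4× images, and relative viability is the nuclei count of treated wells over that of vehicle wells, given as the median of duplicate plates.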

[2] = compound: COc1cc2ncn(-c3cc(OCc4ccccc4C(F)(F)F)c(C(N)=O)s3)c2cc1OC + CCNC(=O)c1noc(-c2cc(C(C)C)c(O)cc2O)c1-c1ccc(CN2CCOCC2)cc1 [Luminespib] (partner 0.01 µM)
Procedure, shortened: as §1

[3] = compound: COc1cc2ncn(-c3cc(OCc4ccccc4C(F)(F)F)c(C(N)=O)s3)c2cc1OC + COc1cccc2cc(-c3nc([C@H]4CC[C@H](C(=O)O)CC4)n4ncnc(N)c34)[nH]c12 [OSI-027] (partner 0.5 µM)
Procedure, shortened: as §1

[4] = compound: COc1cc2ncn(-c3cc(OCc4ccccc4C(F)(F)F)c(C(N)=O)s3)c2cc1OC + CS(=O)(=O)N1CCN(Cc2cc3nc(-c4cccc5[nH]ncc45)nc(N4CCOCC4)c3s2)CC1 [Pictilisib] (partner 1 µM)
Procedure, shortened: as §1

Cell Line	relative viability ([1]; first compound 0.05 µM)	relative viability ([1]; first compound 0.1581 µM)	relative viability ([1]; first compound 0.5 µM)	relative viability ([1]; first compound 1.581 µM)	relative viability ([1]; first compound 5 µM)	relative viability ([2]; first compound 0.05 µM)	relative viability ([2]; first compound 0.1581 µM)	relative viability ([2]; first compound 0.5 µM)	relative viability ([2]; first compound 1.581 µM)	relative viability ([2]; first compound 5 µM)	relative viability ([3]; first compound 0.05 µM)	relative viability ([3]; first compound 0.1581 µM)	relative viability ([3]; first compound 0.5 µM)	relative viability ([3]; first compound 1.581 µM)	relative viability ([3]; first compound 5 µM)	relative viability ([4]; first compound 0.05 µM)	relative viability ([4]; first compound 0.1581 µM)	relative viability ([4]; first compound 0.5 µM)	relative viability ([4]; first compound 1.581 µM)	relative viability ([4]; first compound 5 µM)
HCC-44	1.02	1.01	0.925	0.383	0.35	0.854	1.13	0.613	0.168	0.132	0.626	0.484	0.216	0.187	0.161	0.76	0.601	0.632	0.104	0.11
NCI-H460	0.185	0.172	0.173	0.0095	0.0133	0.0239	0.0323	0.0299	0.0165	0.0166	0.625	0.616	0.227	0.0107	0.0118	0.401	0.206	0.323	0.0526	0.183
SW 1573	0.355	0.432	0.177	0.123	0.127	0.547	0.337	0.12	0.091	0.154	0.757	0.606	0.281	0.129	0.105	0.529	0.377	0.367	–	0.176
NCI-H322M	0.519	0.511	0.457	0.429	0.484	0.837	1.1	0.759	0.315	0.288	0.512	0.541	0.462	0.319	0.239	0.549	0.505	0.556	0.384	0.318
EKVX	0.362	0.438	0.371	0.248	0.219	1	1.01	0.64	–	0.578	0.653	0.69	0.491	–	0.449	0.42	0.516	0.427	0.262	0.291
NCI-H1734	0.315	0.334	0.325	0.203	0.171	0.18	0.239	0.17	0.147	0.125	0.619	0.688	0.489	0.26	0.194	0.493	0.48	0.409	0.206	0.172
ABC-1	0.665	0.777	0.748	0.583	0.37	0.709	0.679	0.255	0.311	0.263	0.629	0.437	0.248	0.207	0.191	0.645	0.791	0.634	0.284	0.229
NCI-H520	0.149	0.253	0.179	0.155	0.121	0.218	0.25	0.21	0.261	0.2	0.28	0.29	0.27	0.163	0.175	0.29	0.316	0.345	0.193	0.172
EPLC-272H	0.273	0.322	0.222	0.144	0.226	–	0.31	0.115	0.111	0.153	–	0.277	0.225	0.163	0.136	0.354	0.202	0.287	0.173	0.135
NCI-H1792	0.728	0.631	0.568	0.377	0.332	0.509	0.397	0.339	0.208	0.185	0.815	0.661	0.315	0.269	0.251	0.278	0.254	0.158	0.0865	0.109
NCI-H1993	0.512	0.67	0.561	0.513	0.431	0.756	0.8	0.548	0.463	0.448	0.477	0.549	0.429	0.438	0.491	–	0.812	0.73	0.553	0.588
NCI-H647	0.436	0.39	0.174	0.0732	0.077	0.438	0.143	0.12	0.101	0.069	0.687	0.561	0.536	0.0932	0.0815	0.441	0.425	0.413	0.0779	0.057
NCI-H1793	0.229	0.357	0.233	0.247	0.177	0.163	0.194	0.176	0.15	0.128	0.3	0.299	0.161	0.144	0.116	0.272	0.308	0.179	0.192	0.228
NCI-H1395	0.614	0.763	0.507	0.377	0.28	0.753	0.814	0.579	0.321	0.359	0.63	0.675	0.547	0.354	0.323	0.609	0.686	0.461	0.635	0.438
HCC-827	0.442	0.391	0.486	0.424	0.217	0.335	0.683	0.372	0.194	0.161	0.794	0.9	0.564	0.228	0.14	0.917	1.13	0.968	0.77	0.56
ChaGo-K-1	0.948	0.878	0.649	0.247	0.147	0.617	0.516	0.285	0.18	0.14	0.622	0.531	0.32	0.182	0.134	0.676	0.419	0.594	0.322	0.248

— the supplement of paper PMC10307832
